Assay type in all cases: cell-based
Test [1] concerns HCC827 human NSCLC adenocarcinoma cells. Nature of the test: Cell proliferation assay, mutant ERBB1 (exon 19 deletion). As to conditions: for GI50: Homo sapiens, HCC827, 72 hrs treatment; for Selectivity Ratio (Wild-type ERBB1/Mutant ERBB1) HEKn/HCC827: ratio of GI50 HEKn/HCC827; for Selectivity Ratio (Wild-type ERBB1/Mutant ERBB1) A431/HCC827: ratio of GI50 A431/HCC827. As for the experimental part:
(§1) The biological activity of a test compound was determined using cell proliferation assays. The activity against wild-type ERBB1 was determined using A431 human epidermoid carcinoma cells (ATCC) and human epidermal keratinocytes, neonatal, or HEKn cells (ATCC).
(§2) A431 cells were grown in DMEM (Invitrogen) supplemented with 10% FBS (Lonza), 1% penicillin-streptomycin, and 2 mM glutamine (Invitrogen). HEKn cells were grown in EPILIFE® (Invitrogen) supplemented with HKGS (Invitrogen). HCC827 and H1975 were cultured in RPMI1640 supplemented with 10% FBS (Lonza), 1% penicillin-streptomycin, and 2 mM glutamine (Invitrogen). Cells were maintained and propagated at 37° C. and 5% CO2 in a humidified cell culture incubator. Aliquots of cells from early passages were preserved for liquid nitrogen storage. Frozen vials of cells were thawed at 37° C. water bath. Cells were spun to remove freezing medium. The newly revived frozen cells were adapted in culture for 10 days before used for compound testing. Cells used in the assay were less than 20 subculture passages or 3 months in culture.
(§3) The test compounds were dissolved in dimethylsulfoxide (DMSO) and stored at −20° C. before testing. […] The cells were placed in a culture incubator overnight. Next day, test compounds in DMSO were added to the cells and placed back in the culture incubator for 72 hrs. In the meantime, the cell numbers at time zero of the compound treatment (T0) was measured by ENERCOUNT® (Codex BioSolutions). At the end of the compound treatment, the cell numbers were again measured by EnerCount as T72 values. The untreated controls (Ctrl) were cell numbers recorded from the 0.1% DMSO treatment. The percent growth inhibition by the test compound was calculated by the formula: (1−(T72−T0)/(Ctrl−T0))×100.
(§4) The results are summarized in Tables 1 and 2, wherein A represents a value no greater than 500 nM, B represents a value greater than 500 nM but no greater than 1 μM, C represents a value greater than 1 μM but no greater than 5 μM, and D represents a value greater than 5 μM; and wherein A′ represents a ratio of greater than 10, B′ represents a ratio of no greater than 10 but no less than 5, C′ represents a ratio of no greater than 5 but no less than 2, and D′ represents a ratio of no greater than 2.

Test [2] relates to H1975 human NSCLC adenocarcinoma cells. Kind of test: Cell proliferation assay, drug-resistant mutant ERBB1 (T790M/L858R). As to conditions: for Selectivity Ratio (Wild-type ERBB1/Mutant ERBB1) HEKn/H1975: ratio of GI50 HEKn/H1975; for GI50: Homo sapiens, NCI-H1975, 72 hrs treatment, class symbols; for Selectivity Ratio (Wild-type ERBB1/Mutant ERBB1) A431/H1975: ratio of GI50 A431/H1975. How it is done:
as §1, §2, §3, §4

Test [3] concerns human epidermal keratinocytes, neonatal, or HEKn cells. Kind of test: Cell proliferation assay, wild-type ERBB1. As to conditions: Keratinocyte, 72 hrs treatment. As for the experimental part: as §1, §2, §3, §4
The test system of test [4] is A431 human epidermoid carcinoma cells. Kind of test: Cell proliferation assay, wild-type ERBB1. As to conditions: A-431, 72 hrs treatment, class symbols. As for the experimental part:
as §1, §2, §3, §4

As usually defined, the GI50 is the concentration at which growth is held to half of that of the control. A lower GI50 goes with greater sensitivity of the cells.

Consider `C=CC(=O)Nc1cccc(Nc2nc(Nc3ccc(N4CCN(C(C)=O)CC4)cc3OC)ncc2C(F)(F)F)c1` [CO-1686, reference compound], for which the GI50 worked out at 0.032 µM in test [1] (numeric values, unit inferred) and 2.5 µM in test [3] (numeric values, unit inferred). Also, the “Selectivity Ratio (Wild-type ERBB1/Mutant ERBB1) HEKn/HCC827” value in test [1] is recorded as “A′ (A′ represents a ratio of greater than 10)”. In test [2], the “Selectivity Ratio (Wild-type ERBB1/Mutant ERBB1) HEKn/H1975” value is listed as “A′ (A′ represents a ratio of greater than 10)”.
In the case of `C=CC(=O)N1CCCC[C@@H](n2c(NC(=O)c3ccnc(C)c3)nc3cccc(OC4CCN(CC)CC4)c32)C1` [Compound A1, (R)—N-(1-(1-Acryloylazepan-3-yl)-7-((1-ethylpiperidin-4-yl)oxy)-1H-benzo[d]imidazol-2-yl)-2-methylisonicotinamide], the GI50 in test [1] (class symbols) is less than 0.5 µM. Besides, in test [1], the “Selectivity Ratio (Wild-type ERBB1/Mutant ERBB1) A431/HCC827” value is reported as “A′ (A′ represents a ratio of greater than 10)” and the “Selectivity Ratio (Wild-type ERBB1/Mutant ERBB1) HEKn/HCC827” value is “A′ (A′ represents a ratio of greater than 10)”. Moreover, in test [2], the GI50 is less than 0.5 µM, the “Selectivity Ratio (Wild-type ERBB1/Mutant ERBB1) A431/H1975” value is listed as “A′ (A′ represents a ratio of greater than 10)” and the “Selectivity Ratio (Wild-type ERBB1/Mutant ERBB1) HEKn/H1975” value is on record as “A′ (A′ represents a ratio of greater than 10)”. For the same compound, in test [4], the GI50 is less than 0.5 µM. For the same compound, in test [3] (class symbols), the GI50 lay within 1 to 5 µM.
The compound `C=CC(=O)N1CCCC[C@@H](n2c(NC(=O)c3ccnc(C)c3)nc3cccc(OC4CCN(C(C)=O)CC4)c32)C1` [Compound A2, (R)—N-(7-((1-acetylpiperidin-4-yl)oxy)-1-(1-acryloylazepan-3-yl)-1H-benzo[d]imidazol-2-yl)-2-methylisonicotinamide] yielded a GI50 in test [1] (class symbols) of less than 0.5 µM. Further, in test [1], the “Selectivity Ratio (Wild-type ERBB1/Mutant ERBB1) A431/HCC827” value was “A′ (A′ represents a ratio of greater than 10)” and the “Selectivity Ratio (Wild-type ERBB1/Mutant ERBB1) HEKn/HCC827” value is given as “A′ (A′ represents a ratio of greater than 10)”. In addition, in test [2], the GI50 was less than 0.5 µM, the “Selectivity Ratio (Wild-type ERBB1/Mutant ERBB1) A431/H1975” value is “B′ (B′ represents a ratio of no greater than 10 but no less than 5)” and the “Selectivity Ratio (Wild-type ERBB1/Mutant ERBB1) HEKn/H1975” value is reported as “A′ (A′ represents a ratio of greater than 10)”. Moreover, the GI50 in test [4] lay within 0.5 to 1 µM. This compound also displayed a GI50 in test [3] (class symbols) of more than 5 µM.
Turning to `C=CC(=O)N1CCC(Oc2cccc3nc(NC(=O)c4ccnc(C)c4)n([C@@H]4CCCCN(C(=O)C=C)C4)c23)CC1` [Compound A3, (R)—N-(1-(1-acryloylazepan-3-yl)-7-((1-acryloylpiperidin-4-yl)oxy)-1H-benzo[d]imidazol-2-yl)-2-methylisonicotinamide], the GI50 in test [1] (class symbols) was less than 0.5 µM; in test [2], less than 0.5 µM; in test [4], more than 5 µM; in test [3] (class symbols) it was 1 to 5 µM. Moreover, in test [1], the “Selectivity Ratio (Wild-type ERBB1/Mutant ERBB1) A431/HCC827” value is recorded as “A′ (A′ represents a ratio of greater than 10)”. In addition, the “Selectivity Ratio (Wild-type ERBB1/Mutant ERBB1) HEKn/HCC827” value in test [1] is “A′ (A′ represents a ratio of greater than 10)”. Further, the “Selectivity Ratio (Wild-type ERBB1/Mutant ERBB1) A431/H1975” value in test [2] was “B′ (B′ represents a ratio of no greater than 10 but no less than 5)”. In test [2], the “Selectivity Ratio (Wild-type ERBB1/Mutant ERBB1) HEKn/H1975” value is “A′ (A′ represents a ratio of greater than 10)”.
With `C=CC(=O)N1CCCC[C@@H](n2c(NC(=O)c3ccnc(C)c3)nc3cc(OC(F)(F)F)cc(Cl)c32)C1` [Compound A4, (R)—N-(1-(1-Acryloylazepan-3-yl)-7-chloro-5-(trifluoromethoxy)-1H-benzo[d]imidazol-2-yl)-2-methylisonicotinamide], the GI50 in test [1] (class symbols) is less than 0.5 µM. In test [1], the “Selectivity Ratio (Wild-type ERBB1/Mutant ERBB1) A431/HCC827” value was “A′ (A′ represents a ratio of greater than 10)” and the “Selectivity Ratio (Wild-type ERBB1/Mutant ERBB1) HEKn/HCC827” value is reported as “A′ (A′ represents a ratio of greater than 10)”. In test [2], the GI50 was less than 0.5 µM, the “Selectivity Ratio (Wild-type ERBB1/Mutant ERBB1) A431/H1975” value is given as “C′ (C′ represents a ratio of no greater than 5 but no less than 2)” and the “Selectivity Ratio (Wild-type ERBB1/Mutant ERBB1) HEKn/H1975” value is “C′ (C′ represents a ratio of no greater than 5 but no less than 2)”. For the same compound, the GI50 in test [4] was in the range of 1 to 5 µM. In addition, the GI50 in test [3] (class symbols) is 1 to 5 µM.
In turn, `Cc1cc(C(=O)Nc2nc3cc(OC(F)(F)F)cc(Cl)c3n2[C@@H]2CCCCN(C(=O)/C=C/CN(C)C)C2)ccn1` [Compound A5, (R,E)-N-(7-Chloro-1-(1-(4-(dimethylamino)but-2-enoyl)azepan-3-yl)-5-(trifluoromethoxy)-1H-benzo[d]imidazol-2-yl)-2-methylisonicotinamide] yielded a GI50 in test [1] (class symbols) of less than 0.5 µM. In test [1], the “Selectivity Ratio (Wild-type ERBB1/Mutant ERBB1) A431/HCC827” value is on record as “A′ (A′ represents a ratio of greater than 10)” and the “Selectivity Ratio (Wild-type ERBB1/Mutant ERBB1) HEKn/HCC827” value is “A′ (A′ represents a ratio of greater than 10)”. Also, in test [2], the concentration for 50% growth inhibition (GI50) was less than 0.5 µM, the “Selectivity Ratio (Wild-type ERBB1/Mutant ERBB1) A431/H1975” value is on record as “C′ (C′ represents a ratio of no greater than 5 but no less than 2)” and the “Selectivity Ratio (Wild-type ERBB1/Mutant ERBB1) HEKn/H1975” value is given as “A′ (A′ represents a ratio of greater than 10)”. Further, in test [4], the GI50 lay within 1 to 5 µM. This compound also had a GI50 in test [3] (class symbols) of 1 to 5 µM.

The values are drawn from patent US11787788B2, “Benzimidazole derivatives, and pharmaceutical compositions and methods of use thereof” (CAPELLA THERAPEUTICS, INC., priority 2014, dated 2023).
